Results reported in paper PMC4684214, “Timberol® Inhibits TAAR5-Mediated Responses to Trimethylamine and Influences the Olfactory Threshold in Humans” (PLoS ONE, 2015).

Target: T1, hOR51E1 (Homo sapiens, UniProt Q8TCB6)
T1 construct: gene OR51E1; recombinant receptor plasmid transfected in HANA3A cells; with G-alpha-olf, RTP1S and M3 muscarinic receptor
T1 sequence (Q8TCB6 1-318): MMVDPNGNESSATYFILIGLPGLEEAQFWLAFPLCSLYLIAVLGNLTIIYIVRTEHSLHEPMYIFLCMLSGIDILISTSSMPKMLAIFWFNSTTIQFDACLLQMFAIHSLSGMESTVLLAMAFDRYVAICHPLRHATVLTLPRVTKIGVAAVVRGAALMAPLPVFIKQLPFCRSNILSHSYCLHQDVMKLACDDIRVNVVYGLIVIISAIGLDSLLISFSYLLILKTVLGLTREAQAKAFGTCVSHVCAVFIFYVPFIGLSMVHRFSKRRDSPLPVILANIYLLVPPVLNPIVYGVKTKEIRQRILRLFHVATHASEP
Assay: Cre-luciferase reporter gene assay (cAMP)
Format: cell-based
Conditions: agonist; M3 muscarinic receptor co-expressed; 37°C, 4 h
Source text: Cre-luciferase reporter gene assay (cAMP) on hOR51E1 | (B) nonanoic acid and hOR51E1

## CCCCCCCCC(=O)O [nonanoic acid]
  EC50: 103 ± 23.1 µM
